Test results from patent US10941114B2, “Small molecule lipid II inhibitors” (University Of Maryland, Baltimore, priority 2015, dated 2021).
Where a name gives a salt, the structure may show the parent alone. Read-outs that look alike come from different tables or passages of the source.

Tests used:
Assay in all cases: Antibacterial activity assay (MIC, broth dilution)
Assay type in all cases: cell-based
Acinetobacter baumannii = conditions: Acinetobacter baumannii; Table 16; CLSI M07-A10 dilution method; read-out: MIC A. baumannii
Procedure: (§1) Determination of the Minimal Inhibitory Concentrations (MIC) by dilution was carried out by broth dilution according to CLSI standards. See CLSI, Methods for Dilution Antimicrobial Susceptibility Tests for Bacteria That Grow Aerobically; Approved Standard—Eighth Edition. 2009, the contents of which are hereby incorporated by reference. Briefly, the minimum inhibitory concentration MIC, is the lowest concentration of a compound that prevents visible growth of a bacterium, in other words at which it has bacteriostatic activity.
(§2) Compounds were tested for MIC by methods known in the art and described in CLSI, Methods for Dilution Antimicrobial Susceptibility Tests for Bacteria That Grow Aerobically; Approved Standard—Tenth Edition. CLSI document M07-A10. Wayne, Pa.: Clinical and Laboratory Standards Institute, 2015, which is hereby incorporated by reference for these methods.
(§3) Selected compounds also were tested by broth microdilution methods known in the art and described in CLSI, Methods for Dilution Antimicrobial Susceptibility Tests for Bacteria That Grow Aerobically; Approved Standard—Tenth Edition. CLSI document M07-A10. Wayne, Pa.: Clinical and Laboratory Standards Institute, 2015, which is hereby incorporated by reference. Structures of selected compounds in the tables are listed below.

Enterococcus faecium = conditions: Enterococcus faecium
Procedure: as §1
For these tests, cation-adjusted Mueller Hinton broth, containing 10% brain-heart infusion (BHI) was used. Concentrations (MIC) are given in μg/mL. The compound was […].
as §2, §3

Staphylococcus aureus = conditions: Staphylococcus aureus
Enterococcus faecalis = conditions: Enterococcus faecalis
[1] = Table 16, CLSI M07-A10 dilution method, read-out: MIC E. faecium
[2] = Table 16, CLSI M07-A10 dilution method, read-out: MIC S. aureus
[3] = cation-adjusted Mueller Hinton broth, 10% BHI, read-out: MIC E. faecalis 51299
[4] = cation-adjusted Mueller Hinton broth, 10% BHI, read-out: MIC E. faecalis 51575
[5] = cation-adjusted Mueller Hinton broth, 10% BHI, read-out: MIC E. faecalis C99707
[6] = cation-adjusted Mueller Hinton broth, 10% BHI, read-out: MIC E. faecium C110914
[7] = cation-adjusted Mueller Hinton broth, 10% BHI, read-out: MIC E. faecium IH79985
[8] = cation-adjusted Mueller Hinton broth, 10% BHI, read-out: MIC E. faecium S1559
[9] = Table 21, read-out: Escherichia feacalis MIC
[10] = Table 21, read-out: Staphylococcus aureus MIC

SMILES	MIC (Acinetobacter baumannii) [µg/mL]	MIC (Enterococcus faecium; [1]) [µg/mL]	MIC (Staphylococcus aureus; [2]) [µg/mL]	also measured
CN(C)c1ccc(/C=C/c2cc(-c3ccc(Br)cc3Cl)cc(-c3ccc(Br)cc3)[n+]2C)cc1.[I-] [Compound 9z1, (E)-4-(4-bromo-2-chlorophenyl)-2-(4-bromophenyl)-6-(4-(dimethylamino)-styryl)-1-methylpyridin-1-ium iodide]	32	8	4	–
CN(CCC#N)c1ccc(/C=C/c2cc(-c3ccc(Br)cc3)cc(-c3ccc(Br)cc3)[n+]2C)cc1.[I-] [Compound 9k, (E)-2,4-bis(4-bromophenyl)-6-(4-((2-cyanoethyl)(methyl)amino)styryl)-1-methylpyridin-1-ium iodide]	64	32	32	–
CCc1ccc(-c2cc(/C=C/c3cc4c5c(c3)CCCN5CCC4)[o+]c(-c3ccc(CC)cc3)c2)cc1 [Compound 6jc69-1, (E)-2,4-bis(4-ethylphenyl)-6-(2-(1,2,3,5,6,7-hexahydropyrido[3,2,1-ij]quinolin-9-yl)vinyl)pyrylium boron tetrafluoride salt]	–	–	–	MIC (Enterococcus faecalis; [3]): 1 µg/mL; MIC (Enterococcus faecalis; [4]): 2 µg/mL; MIC (Enterococcus faecalis; [5]): 1 µg/mL; MIC (Enterococcus faecium; [6]): 4 µg/mL; MIC (Enterococcus faecium; [7]): 8 µg/mL; MIC (Enterococcus faecium; [8]): 2 µg/mL
Cc1ccc(-c2cc(/C=C/c3cc4c5c(c3)CCCN5CCC4)[o+]c(-c3ccc(C)c(C)c3)c2)cc1C [Compound 6jc69-3, (E)-2,4-bis(3,4-dimethylphenyl)-6-(2-(1,2,3,5,6,7-hexahydropyrido[3,2,1-ij]quinolin-9-yl)vinyl)pyrylium boron tetrafluoride salt]	–	–	–	MIC (Enterococcus faecalis; [3]): 1 µg/mL; MIC (Enterococcus faecalis; [4]): 2 µg/mL; MIC (Enterococcus faecalis; [5]): 1 µg/mL; MIC (Enterococcus faecium; [6]): 2 µg/mL; MIC (Enterococcus faecium; [7]): 4 µg/mL; MIC (Enterococcus faecium; [8]): 2 µg/mL
CN(C)c1ccc(/C=C/c2cc(-c3cccc(Br)c3)cc(-c3ccc(Br)cc3)[n+]2C)cc1 [Compound 9b]	16	2	1	–
Cc1ccc(-c2cc(/C=C/C=C3/N(C)c4ccccc4C3(C)C)[o+]c(-c3ccc(C)cc3)c2)cc1 [Compound 6jc67A, 2,4-di-p-tolyl-6-((1E,3E)-3-(1,3,3-trimethylindolin-2-ylidene)prop-1-en-1-yl)pyrylium boron tetrafluoride salt]	–	–	–	MIC (Enterococcus faecalis; [3]): 1 µg/mL; MIC (Enterococcus faecalis; [4]): 1 µg/mL; MIC (Enterococcus faecalis; [5]): 1 µg/mL; MIC (Enterococcus faecium; [6]): 1 µg/mL; MIC (Enterococcus faecium; [7]): 2 µg/mL; MIC (Enterococcus faecium; [8]): 1 µg/mL
CCN(CC)c1ccc(/C=C/c2cc(-c3ccc(F)cc3)cc(-c3ccc(F)cc3)[o+]2)c(O)c1.F[B-](F)(F)F	–	–	–	MIC (Enterococcus faecalis; [9]): > 64 µg/mL; MIC (Staphylococcus aureus; [10]): 64 µg/mL
CN(CCC#N)c1ccc(/C=C/c2cc(-c3ccc(I)cc3)cc(-c3ccc(I)cc3)[o+]2)cc1.F[B-](F)(F)F	–	–	–	MIC (Enterococcus faecalis; [9]): > 64 µg/mL; MIC (Staphylococcus aureus; [10]): > 64 µg/mL

Now from value to compound, other results behind:

MIC (Acinetobacter baumannii) [µg/mL]	SMILES	MIC (Enterococcus faecium; [1]) [µg/mL]	MIC (Staphylococcus aureus; [2]) [µg/mL]	also measured
16	CCN(CC)c1ccc(/C=C/c2cc(-c3ccc(Cl)cc3)cc(-c3ccc(C)cc3)[n+]2C)cc1.[I-] [Compound 9o, (E)-4-(4-chlorophenyl)-2-(4-(diethylamino)styryl)-1-methyl-6-(p-tolyl)pyridin-1-ium iodide]	16	32	–
8	CCN(C)c1ccc(/C=C/c2cc(-c3ccc(Br)cc3)cc(-c3ccc(Br)cc3)[n+]2C)cc1.[I-] [Compound 9h, (E)-2,4-bis(4-bromophenyl)-6-(4-(ethyl(methyl)amino)styryl)-1-methylpyridin-1-ium iodide]	8	16	–
16	Cc1ccc(-c2cc(-c3ccc(Br)cc3)cc(/C=C/c3ccc(N(C)CCC#N)cc3)[n+]2C)cc1C.[I-] [Compound 9u, (E)-4-(4-bromophenyl)-2-(4-((2-cyanoethyl)(methyl)amino)styryl)-6-(3,4-dimethylphenyl)-1-methylpyridin-1-ium iodide]	8	2	–
16	CN(CCO)c1ccc(/C=C/c2cc(-c3ccc(Br)cc3Cl)cc(-c3ccc(Br)cc3)[n+]2C)cc1.[I-] [Compound 9z3, (E)-4-(4-bromo-2-chlorophenyl)-2-(4-bromophenyl)-6-(4-((2-hydroxyethyl)-(methyl)amino)styryl)-1-methylpyridin-1-ium iodide]	4	2	–
2	CCC[n+]1c(/C=C/c2ccc(N(C)C)cc2)cc(-c2ccc(Br)cc2)cc1-c1ccc(C)cc1.[I-] [Compound 9e3, (E)-4-(4-bromophenyl)-2-(4-(dimethylamino)styryl)-1-propyl-6-(p-tolyl)-pyridin-1-ium iodide]	2	0.5	–
16	Cc1ccc(-c2cc(-c3ccc(Cl)cc3)cc(/C=C/c3ccc(N(C)CCC#N)cc3)[n+]2C)cc1.[I-] [Compound 9q, (E)-4-(4-chlorophenyl)-2-(4-((2-cyanoethyl)(methyl)amino)styryl)-1-methyl-6-(p-tolyl)pyridin-1-ium iodide]	2	0.25	–
2	CCN(CC)c1ccc(/C=C/c2cc(-c3ccc(Br)cc3Cl)cc(-c3ccc(Br)cc3)[n+]2C)cc1.[I-] [Compound 9z2, (E)-4-(4-bromo-2-chlorophenyl)-2-(4-bromophenyl)-6-(4-(diethylamino)-styryl)-1-methylpyridin-1-ium iodide]	1	0.5	–
4	CC[n+]1c(/C=C/c2ccc(N(C)C)cc2)cc(-c2ccc(Br)cc2)cc1-c1ccc(C)cc1.[I-] [Compound 9e1, (E)-4-(4-bromophenyl)-2-(4-(dimethylamino)styryl)-1-ethyl-6-(p-tolyl)pyridin-1-ium iodide]	2	2	–
8	CCN(CC)c1ccc(/C=C/c2cc(-c3ccc(Br)cc3)cc(-c3cccc(Br)c3)[n+]2C)cc1.[I-] [Compound 9m, (E)-2-(3-bromophenyl)-4-(4-bromophenyl)-6-(4-(diethylamino)styryl)-1-methylpyridin-1-ium iodide]	4	8	–
16	CN(C)c1ccc(/C=C/c2cc(-c3ccc(Cl)cc3)cc(-c3ccc(Br)cc3)[n+]2C)cc1.[I-] [Compound 9c, (E)-2-(4-bromophenyl)-4-(4-chlorophenyl)-6-(4-(dimethylamino)styryl)-1-methylpyridin-1-ium iodide]	4	0.5	–
8	COc1cc(-c2cc(/C=C/c3ccc(N(C)CCC#N)cc3)[n+](C)c(-c3ccc(Br)cc3)c2)cc(OC)c1Br.[I-] [Compound 9y4, (E)-4-(4-bromo-3,5-dimethoxyphenyl)-2-(4-bromophenyl)-6-(4-((2-cyano-ethyl)(methyl)amino)styryl)-1-methylpyridin-1-ium iodide]	8	4	–
4	Cc1ccc(-c2cc(-c3ccc(Cl)cc3)cc(/C=C/c3ccc(N(C)C)cc3)[n+]2C)cc1.[I-] [Compound 9n, (E)-4-(4-chlorophenyl)-2-(4-(dimethylamino)styryl)-1-methyl-6-(p-tolyl)-pyridin-1-ium iodide]	2	4	–
4	CC[n+]1c(/C=C/c2ccc(N(C)CCO)cc2)cc(-c2ccc(Br)cc2)cc1-c1ccc(C)cc1 [Compound 9e2]	4	2	–
